Data as given in patent US5491170A, “β-carboxy sulfonamide ACAT inhibitors” (priority 1994, dated 1996).

Columns and labels:
[1] = biological target: T1, acyl-CoA: cholesterol acyltransferase (ACAT) (Rattus norvegicus, UniProt Q7TQM4); test: LAI: in vitro inhibition of ACAT (acylation of cholesterol by radiolabeled oleic acid) in rat liver microsomes; type: biochemical
T1 construct: tissue preparation containing rat liver microsomes (designated LAI); from tissue; host or cells: rat liver microsomes
T1 sequence (Q7TQM4 1-524): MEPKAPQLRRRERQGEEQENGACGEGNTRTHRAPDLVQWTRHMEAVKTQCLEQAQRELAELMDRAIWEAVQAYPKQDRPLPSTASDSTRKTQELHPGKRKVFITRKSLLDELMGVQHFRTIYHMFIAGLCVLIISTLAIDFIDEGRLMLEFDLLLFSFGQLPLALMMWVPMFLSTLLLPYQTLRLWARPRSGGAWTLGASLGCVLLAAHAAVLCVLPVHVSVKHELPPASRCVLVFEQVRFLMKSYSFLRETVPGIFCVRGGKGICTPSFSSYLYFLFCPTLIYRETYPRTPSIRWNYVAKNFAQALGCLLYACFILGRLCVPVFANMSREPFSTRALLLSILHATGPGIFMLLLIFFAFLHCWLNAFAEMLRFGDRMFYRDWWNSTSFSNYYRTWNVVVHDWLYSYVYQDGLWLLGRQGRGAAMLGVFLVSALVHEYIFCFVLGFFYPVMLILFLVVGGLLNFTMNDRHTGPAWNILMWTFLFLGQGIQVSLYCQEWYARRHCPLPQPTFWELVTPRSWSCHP
Experimental: The ability of representative compounds of the present invention to inhibit ACAT was measured using an in vitro test more fully described in F. J. Field and R. G. Salone, Biochemica et Biophysica Acta, 712:557-570 (1982). The test assesses the ability of a test compound to inhibit the acylation of cholesterol by oleic acid by measuring the amount of radiolabeled cholesterol oleate formed from radiolabeled oleic acid in a tissue preparation containing rat liver microsomes (designated LAI).

male Sprague-Dawley rats = test: APCC: in vivo screen, total cholesterol in rats fed a high fat, high cholesterol diet; parameters: species or system rat (male Sprague-Dawley); settings: Rattus norvegicus, po, 16 h, 30 mg/kg by gavage, high cholesterol diet (5.5% peanut oil, 1.5% cholesterol, 0.5% cholic acid), dosed 4 PM, sacrificed 8 AM, read-out: APCC (% change TC): percent change in total cholesterol from control animals given vehicle and diet only
From the text: In an in vivo screen designated APCC, male Sprague-Dawley rats (200-225 g body weight) were randomly divided into treatment groups and dosed at 4 PM with either vehicle (CMC/Tween) or suspensions of invention compounds in vehicle. The normal chow diet was then replaced with a high fat, high cholesterol diet (5.5% peanut oil, 1.5% cholesterol, and 0.5% cholic acid). The rats consumed this diet ad libitum during the night and were sacrificed at 8 AM to obtain blood samples for cholesterol analysis using standard procedures. Statistical differences between mean cholesterol values for the same vehicle were determined using analysis of variance followed by Fisher's least significant test. The results of this trial for representative compounds of the present invention also appear in Table I as the percent change in total cholesterol (% TC) from control animals given vehicle and diet only. All compounds in the APCC test reported in Table 1 were administered by gavage at 30 mg/kg.

Compound `CCCCCCCCCCOC(=O)CS(=O)(=O)Nc1c(C(C)C)cccc1C(C)C` [Example 24, (2,6-Diisopropylphenylsulfamoyl)-acetic Acid Decylester] has an IC50 [1] greater than 1000 nM and a change in vivo at 30 mg/kg (male Sprague-Dawley rats) of -16%.
With `CC(C)c1cccc(C(C)C)c1NS(=O)(=O)CC(=O)Oc1c(C(C)C)cccc1C(C)C` [Example 22, 2,6,-Diissoproplphenyl(2,6-diisopropylphenylsulfamoyl)acetate] the IC50 [1] was 17600 nM and the change in vivo at 30 mg/kg (male Sprague-Dawley rats) was -7%.
For `CC(C)c1cc(C(C)C)c(NS(=O)(=O)CC(=O)Oc2c(C(C)C)cccc2C(C)C)c(C(C)C)c1` [Example 31, (2,4,6-Triisopropylphenylsulfamoyl)-acetic Acid, 2,6-Diisopropyl Ester], the IC50 [1] was greater than 1000 nM and the change in vivo at 30 mg/kg (male Sprague-Dawley rats) was -29%.
In the case of `CCCCCCCCCCCCCCOC(=O)CS(=O)(=O)Nc1c(C(C)C)cccc1C(C)C` [Example 20, (2,6-Diisopropylphenylsulfamoyl)-acetic Acid Tetradecyl Ester], the change in vivo at 30 mg/kg (male Sprague-Dawley rats) is reported as -45%.
For `CC(C)c1cccc(C(C)C)c1NS(=O)(=O)CC(=O)NC(c1ccccc1)c1ccccc1` [Example 8, 2-(2,6-Diisopropylphenylsulfamoyl)-N-diphenylmethylacetamide], the IC50 [1] was greater than 1000 nM.
In the case of `CCCCCCCCCCCCOC(=O)CS(=O)(=O)Nc1c(C(C)C)cccc1C(C)C` [Example 29, (2,6-Diisopropylphenylsulfamoyl)-acetic Acid Dodecylester], the change in vivo at 30 mg/kg (male Sprague-Dawley rats) is reported as -34%.
Work on `CC(C)c1cccc(C(C)C)c1NS(=O)(=O)CC(=O)Sc1c(C(C)C)cccc1C(C)C` [Example 12, (2,6-Diisopropylphenylsulfamoyl)-thioacetic Acid 2,6-Diisopropylphenyl Ester] yielded an IC50 [1] greater than 5000 nM and a change in vivo at 30 mg/kg (male Sprague-Dawley rats) of -16%.
`CCOC(=O)CS(=O)(=O)Nc1c(C(C)C)cccc1C(C)C` [Example 21, (2,6-Diisopropylphenylsulfamoyl)-acetic Acid Ethyl Ester] was tested, and the IC50 [1] was greater than 1000 nM and the change in vivo at 30 mg/kg (male Sprague-Dawley rats) was 2%.
Work on `Cc1cccc(C)c1SC(=O)CS(=O)(=O)Nc1c(C(C)C)cccc1C(C)C` [Example 19, (2,6-Diisopropylphenylsulfamoyl)-thioacetic Acid S-2,6-dimethylphenyl Ester] yielded an IC50 [1] greater than 5000 nM and a change in vivo at 30 mg/kg (male Sprague-Dawley rats) of 3%.
In the case of `CCCCCCCCCCCCSC(=O)CS(=O)(=O)Nc1ccc(F)cc1F` [Example 16, (2,4-Diifluorophenylsulfamoyl)-thioacetic Acid S-dodecyl Ester], the IC50 [1] is reported as 230 nM and the change in vivo at 30 mg/kg (male Sprague-Dawley rats) is reported as -37%.
For `CC(CCc1ccccc1)COC(=O)CS(=O)(=O)Nc1c(C(C)C)cccc1C(C)C` (centres unmarked) [Example 40, (2,6-diisopropylphenylsulfamoyl)-acetic acid, (2-methyl-4-phenylbutyl) ester], the IC50 [1] was 4200 nM and the change in vivo at 30 mg/kg (male Sprague-Dawley rats) was -32%.
Work on `CCCCCCCCCCCCC(C)OC(=O)CS(=O)(=O)Nc1c(C(C)C)cccc1C(C)C` (centres unmarked) [Example 28, (2,6-Diisopropylphenylsulfamoyl)-acetic Acid 1-methyltridecyl Ester] yielded a change in vivo at 30 mg/kg (male Sprague-Dawley rats) of -39%.
`CCCCCCCCCCCCCCSC(=O)CS(=O)(=O)Nc1c(C(C)C)cccc1C(C)C` [Example 15, (2,6-Diisopropylphenylsulfamoyl)-thio-acetic Acid S-tetradecyl Ester] was tested, and the change in vivo at 30 mg/kg (male Sprague-Dawley rats) was -23%.
In the case of `CC(C)c1cccc(C(C)C)c1NC(=O)CS(=O)(=O)Nc1c(C(C)C)cccc1C(C)C` [Example 4, N-(2,6-Diisopropylphenyl)-2-(2,6-diisopropylphenylsulfamoyl)-acetamide], the change in vivo at 30 mg/kg (male Sprague-Dawley rats) is reported as -51%.
`CCCCCCCCSC(=O)CS(=O)(=O)Nc1c(C(C)C)cccc1C(C)C` [Example 11, (2,6-Diisopropylphenylsulfamoyl)-thio-acetic Acid S-octyl Ester] was tested, and the change in vivo at 30 mg/kg (male Sprague-Dawley rats) was -32%.
Compound `CCCCCCCCCCCCNC(=O)CS(=O)(=O)Nc1c(C(C)C)cccc1C(C)C` [Example 5, 2-(2,6-Diisopropylphenylsulfamoyl)-N-dodecyl-acetamide] has a change in vivo at 30 mg/kg (male Sprague-Dawley rats) of -29%.
`CC(C)c1cc(C(C)C)c(OC(=O)CS(=O)(=O)Nc2c(C(C)C)cccc2C(C)C)c(C(C)C)c1` [Example 1, 2,4,6-Triisopropylphenyl(2,6-diisopropylphenylsulfamoyl)acetate] gave a change in vivo at 30 mg/kg (male Sprague-Dawley rats) of -19%.
Compound `CCCCCCCCCCCCCCCCCCSC(=O)CS(=O)(=O)Nc1c(C(C)C)cccc1C(C)C` [Example 18, (2,6-Diisopropylphenylsulfamoyl)-thioacetic Acid S-octadecyl Ester] has an IC50 [1] greater than 5000 nM and a change in vivo at 30 mg/kg (male Sprague-Dawley rats) of -35%.
For `CCCCCCOC(=O)CS(=O)(=O)Nc1c(C(C)C)cccc1C(C)C` [Example 26, (2,6-Diisopropylphenylsulfamoyl)-acetic Acid Hexyl Ester], the IC50 [1] was greater than 1000 nM and the change in vivo at 30 mg/kg (male Sprague-Dawley rats) was -5%.
`CCCCCCCCCCCCSC(=O)CS(=O)(=O)Nc1c(OC)cc(OC)cc1OC` [Example 17, (2,4,6-Trimethoxyphenylsulfamoyl)-thioacetic Acid S-dodecyl Ester] was tested, and the IC50 [1] was 570 nM and the change in vivo at 30 mg/kg (male Sprague-Dawley rats) was -3%.
Work on `COc1cc(OC)c(NC(=O)CS(=O)(=O)Nc2c(OC)cc(OC)cc2OC)c(OC)c1` [Example 27, N-(2,4,6-trimethyoxyphenyl)-2-(2,4,6-trimethoxy-phenylsulfamoyl)-acetamide] yielded an IC50 [1] of 7600 nM and a change in vivo at 30 mg/kg (male Sprague-Dawley rats) of 5%.
Compound `CCCCCCCCN(CCCCCCCC)C(=O)CS(=O)(=O)Nc1c(C(C)C)cccc1C(C)C` [Example 3, 2-(2,6-Diisopropylphenylsulfamoyl)-N,N-dioctylacetamide] has a change in vivo at 30 mg/kg (male Sprague-Dawley rats) of -19%.
Work on `CCCCCCNC(=O)CS(=O)(=O)Nc1c(C(C)C)cccc1C(C)C` [Example 6, 2-(2,6-Diisopropylphenylsulfamoyl)-N-hexyl-acetamide] yielded an IC50 [1] greater than 5000 nM and a change in vivo at 30 mg/kg (male Sprague-Dawley rats) of -16%.
For `CC(C)c1cccc(C(C)C)c1NS(=O)(=O)CC(=O)O` [Example 30, (2,6-Diisopropylphenylsulfamoyl)-acetic Acid], the IC50 [1] was greater than 1000 nM and the change in vivo at 30 mg/kg (male Sprague-Dawley rats) was 3%.
`CC(C)c1cccc(C(C)C)c1NS(=O)(=O)CC(=O)N(Cc1ccccc1)C(C)C` [Example 7, N-Benzyl-N-isopropyl-2-(2,6-diisopropylphenylsulfamoyl)acetamide] showed a change in vivo at 30 mg/kg (male Sprague-Dawley rats) of -31%.
In the case of `CC(C)c1cccc(C(C)C)c1NS(=O)(=O)CC(=O)NCC(c1ccccc1)C1CCCC1` (centres unmarked) [Example 9, 2-(2,6-Diisopropylphenylsulfamoyl)-N-(2-cyclopentyl-2-phenylethyl)-acetamide], the IC50 [1] is reported as greater than 1000 nM.
With `CCCCCCCCCCCCSC(=O)CS(=O)(=O)Nc1c(C(C)C)cccc1C(C)C` [Example 10, (2,6-Diisopropylphenylsulfamoyl)-thio-acetic Acid S-dodecyl Ester] the change in vivo at 30 mg/kg (male Sprague-Dawley rats) was -71%.
`CCCCCCCCOC(=O)CS(=O)(=O)Nc1c(C(C)C)cccc1C(C)C` [Example 23, (2,6-Diisopropylphenylsulfamoyl)-acetic Acid Octyl Ester] gave an IC50 [1] greater than 1000 nM and a change in vivo at 30 mg/kg (male Sprague-Dawley rats) of -4%.
`CCCCCCCCCCCCn1nnc(NC(=O)CS(=O)(=O)Nc2c(C(C)C)cccc2C(C)C)n1` [Example 2, 2-(2,6-Diisopropyl-phenylsulfamoyl)-N-(dodecyl-2-H-tetrazol-5-yl)-acetamide] showed an IC50 [1] of 1900 nM and a change in vivo at 30 mg/kg (male Sprague-Dawley rats) of -50%.
Work on `COc1cc(OC)c(OC(=O)CS(=O)(=O)Nc2c(C(C)C)cccc2C(C)C)c(OC)c1` [Example 25, (2,6-Diisopropylphenylsulfamoyl)-acetic Acid 2,4,6-trimethoxyphenyl Ester] yielded an IC50 [1] greater than 1000 nM and a change in vivo at 30 mg/kg (male Sprague-Dawley rats) of -6%.
